“Also recorded” adds a separate entry of the source.
Tested on: RSV
Test: Quantitative RSV plaque assay in HEp2 cells
Format: cell-based, human RSV A2 strain
Details: for antiviral activity against RSV by plaque assay: 50 μg/mL lipid, HEp2, 37° C.
Experimental: Viral stocks were propagated in HEp2 cell monolayers using DMEM/Ham's F12 Medium (GIBCO), plus 5% bovine growth serum (Hyclone) with 1× penicillin streptomycin, and virus was purified using methods previously described [M. Numata, H. W. Chu, A. Dakhama, and D. R. Voelker, “Pulmonary surfactant phosphatidylglycerol inhibits respiratory syncytial virus-induced inflammation and infection.,” Proc. Natl. Acad. Sci. U.S.A., vol. 107, no. 1, pp. 320-5, 2010.]. Viral titers and growth were measured by plaque assays [J. L. McKimm-Breschkin, “A simplified plaque assay for respiratory syncytial virus—direct visualization of plaques without immunostaining,” 2004.]. The antiviral activity of xylitol-headgroup lipids was determined by in vitro RSV infection in the presence or absence of lipid and infectious particles were quantified by viral plaque assay. HEp2 cells were plated at a density of 1.8×10^6 per well in a 6 well plate 24 hours prior to infection in order to create a uniform monolayer. Cell monolayers were infected for 2 hours at 37° C. with serial dilutions of RSV alone and RSV in combination with 50 μg/mL of phospholipid. Following the 2-hour period of infection, the inoculum was removed and 3 mL of medium containing 0.3% agarose was added, allowed to solidify and placed in a 37° C. incubator for 6 days. On day 6 the cells were fixed overnight with formalin and then stained with a neutral red stain and viral plaques were quantified visually.
An optimized quantitative plaque assay (described for RSV by J. L. McKimm-Breschkin, “A simplified plaque assay for respiratory syncytial virus-direct visualization of plaques without immunostaining,” 2004) was applied to survey the ability of PX lipids to inhibit RSV infection. The human epithelial cell line, HEp2, was seeded at a density of 1.8×10^6 per well in a 6-well plate 24 hours in advance of infection. Reaction conditions for infection took place in serum-free medium and were combined before addition to cells. A standard dilution of virus alone was prepared and 50 μg/mL phospholipid in combination with RSV was also prepared. Cells were washed with PBS to remove any serum prior to infection and then 500 μL of virus in various combinations with lipids was added to each well and incubated at 37° C. for 2 hours. Plates were rotated every 20 minutes for even distribution of viral infection. After infection, the viral inoculum was removed and medium containing 0.3% agarose was added to each well and allowed to solidify then placed back into the incubator at 37° C. for 6 days. On day 6, cells were fixed overnight then the agarose layer was removed and wells were stained with neutral red and viral plaques counted. POPG is a known inhibitor of RSV infection in vitro and in vivo. […] Ester-linked saturated xylitol lipids composed the moderately effective antivirals. The sole xylitol analog that was determined ineffective was saturated and ether-linked.

SMILES	reduction of RSV viral infection by a factor of (50 μg/ml lipid, 10^4 infectious virus/ml, HEp2)	antiviral activity against RSV by plaque assay
CCCCCCCC/C=C\CCCCCCCC(=O)O[C@H](COC(=O)CCCCCCCCCCCCCCC)COP(=O)(O)OCC(O)CO (some centres unmarked) [POPG, palmitoyl-oleoyl-phosphatidylglycerol, reference compound]	> 10^4	
CCCCCCCCCCCCCCCC(=O)OCC(COP(=O)(O)OCC(O)C(O)C(O)CO)OC(=O)CCCCCCCCCCCCCCC (centres unmarked) [DPPX, sn-1-palmitoyl, sn-2-palmitoyl sn-3 glycerol phosphoxylitol]		moderate antiviral activity
CCCCCCCCCCCCCC(=O)OC[C@H](COP(=O)(O)OCC(O)C(O)C(O)CO)OC(=O)CCCCCCCCCCCCC (mixture of isomers) [DMPX, sn-1-myristoyl, sn-2-myristoyl sn-3 glycerol phosphoxylitol]		moderate antiviral activity
CCCCCCCCC=CCCCCCCCCOCC(COP(=O)(O)OCC(O)C(O)C(O)CO)OCCCCCCCCC=CCCCCCCCC (mixture of isomers) [18:1 DEPX, sn-1-O-octadecenyl, sn-2-O-octadecenyl sn-3 glycerol phosphoxylitol]		inhibit infection and propagation of RSV
CCCCCCCCCCCCCCCCCC(=O)OCC(COP(=O)(O)OCC(O)C(O)C(O)CO)OC(=O)CCCCCCCCCCCCCCCCC (centres unmarked) [DSPX, sn-1-stearoyl, sn-2-stearoyl sn-3 glycerol phosphoxylitol]		moderate antiviral activity
CCCCCCCC/C=C\CCCCCCCC(=O)O[C@H](COC(=O)CCCCCCCCCCCCCCC)COP(=O)([O-])OCC[N+](C)(C)C [POPC, 1-palmitoyl-2-oleoyl-sn-glycero-3-phosphocholine, reference compound]		ineffective as an antiviral
CCCCCCCCC=CCCCCCCCC(=O)OCC(COP(=O)(O)OCC(O)C(O)C(O)CO)OC(=O)CCCCCCCC=CCCCCCCCC (mixture of isomers) [DOPX, sn-1-oleoyl, sn-2-oleoyl sn-3 glycerol phosphoxylitol]		inhibit infection and propagation of RSV
CCCCCCCCCCCCCCOC[C@H](COP(=O)(O)OCC(O)C(O)C(O)CO)OCCCCCCCCCCCCCC (mixture of isomers) [14:0 DEPX, sn-1-O-myristyl, sn-2-O-myristyl sn-3 glycerol phosphoxylitol]		ineffective as an antiviral; also recorded: ineffective at preventing RSV infection; also recorded: did not inhibit plaque formation

Reference: patent US12472193B2, “Methods and compositions for treating and preventing respiratory related diseases and conditions with xylitol-headgroup lipid analogs” (National Jewish Health, priority 2017, dated 2025)
